The values that follow come from patent US20130158075A1, “HETEROCYCLIC COMPOUNDS AS DGAT1 INHIBITORS” (PIRAMAL ENTERPRISES LIMITED, priority 2010, published 2013).

SMILES strings stand for the structures. Structures can show the parent of a compound that is named as a salt. Bounds are passed on as bounds.

For the first assay, the target named is T1, hDGAT1 (Homo sapiens, UniProt O75907).
T1 construct: made in house; host or cells: Sf9 insect cells (baculovirus); microsomal fraction
T1 sequence (O75907 1-488): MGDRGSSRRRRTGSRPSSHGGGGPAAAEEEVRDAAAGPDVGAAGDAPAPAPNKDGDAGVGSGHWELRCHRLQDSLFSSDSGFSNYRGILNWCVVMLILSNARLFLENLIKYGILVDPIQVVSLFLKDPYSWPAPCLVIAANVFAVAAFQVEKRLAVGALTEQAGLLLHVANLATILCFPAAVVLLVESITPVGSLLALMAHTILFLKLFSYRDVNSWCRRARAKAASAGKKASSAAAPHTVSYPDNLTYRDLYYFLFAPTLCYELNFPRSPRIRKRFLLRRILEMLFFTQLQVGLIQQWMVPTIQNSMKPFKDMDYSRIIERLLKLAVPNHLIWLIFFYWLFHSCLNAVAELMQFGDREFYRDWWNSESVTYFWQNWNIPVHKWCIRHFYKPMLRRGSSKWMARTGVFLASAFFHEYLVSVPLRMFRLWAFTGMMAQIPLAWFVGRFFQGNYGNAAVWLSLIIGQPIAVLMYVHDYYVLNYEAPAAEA
The experiment in a line: In-vitro DGAT1 assay with hDGAT1 microsomes from Sf9 cells (14C oleoyl CoA, scintillation counting). Format: biochemical. As to conditions: at 1 μM. As for the experimental part: Sf9 cells were grown in T25 flasks containing Graces's Insect media with 10% FBS with antibiotic (100 units/mL penicillin, 100 μg/mL streptomycin sulphate, 0.25 μg/mL Amptotericin B as Fungizone) grown in a 27° C. incubator.
hDGAT10RF expression clone (RZPDo839C09146 in pDEST vector) was obtained from RZPD, German Science Center for Genomes research, Germany. hDGAT1 bacmid DNA was obtained by transformation of the hDGAT1 expression clone into DH10Bac E. coli competent cells. Approximately 1 μg of hDGAT1 bacmid DNA was infected into Sf9 cells with Cellfectin (Invitrogen) reagent. Following infection, Sf9 cells were incubated at 27° C. for 30 min. Five hours after infection, the media was replaced with growth media containing antibiotics (100 units/mL penicillin, 100 μg/mL streptomycin sulphate, 0.25 μg/mL Amptotericin B as Fungizone) and incubated at 27° C. for 72 h. The supernatant containing the virus was centrifuged at 1500×g for 5 min, passed through 0.22 μm filter, and subsequently stored at 4° C. The virus was further amplified three more times by re-infection of Sf9 cells and the viral titer was determined by plaque assay.
Sf9 cells were seeded in spinner flasks on day 0 at a cell density of 1×10^6 and infected on day 1 with hDGAT1 baculovirus at a multiplicity of infection (MOI) of 5 and a cell density of 2×10^6. On day 3 (or 66-72 h), cells were harvested and centrifuged at 2500×g for 10 min. Pellet was resuspended in lysis buffer (100 mM sucrose, 50 mM KCl, 40 mM KH2PO4, 30 mM EDTA, pH 7.2) and passed through 21-gauge needle approximately 10 times. The mixture was centrifuged at 12,000 rpm in a Sigma 12158-H rotor at 4° C. for 30 min. The supernatant was subjected to centrifugation at 35,000 rpm in a Beckman Ti-45 rotor at 4° C. for 1 h. The resultant pellet containing the microsomes wasere resuspended overnight in 1 mL of lysis buffer and total protein concentration was estimated using Bradford Reagent. Microsomes were aliquoted and stored at −80° C.
Frozen aliquots of hDGAT1 containing microsomes were thawed (5-10 mg/mL total protein) on ice and diluted to a working stock of 1 mg/mL with DGAT Assay Buffer (DAB). The DGAT reaction assay was performed by following the procedure described in U.S. Pat. No. 6,607,893 with some modifications that are described below.
1 mL stock solution of DGAT1 substrate mixture contains 5.6 μL of ^14C oleoyl CoA (16.8 nCi) and […] of 1,2-dioleoyl-sn-glycerol (1228.5 μM) 1,2-dioleoyl-sn-glycerol stock (19.5 mM) was prepared by dissolving 25 mg of 1,2-dioleoyl-sn-glycerol (Sigma, US) in 2060 μL of acetone.
The assay was performed in duplicates in a reaction volume of 100 μL.
The reaction was started by the addition of 2.5 μL of 1 mg/mL of microsomes (iv) to the mixture of (i), (ii) and (iii), and incubated at 37° C. for 10 min. The reaction was stopped by the addition of 300 μL of Alkaline Ethanol Stop Solution Mix [AESSM; 12.5% of 100% non-denatured ethanol, 10% deionized water, 2.5% 1N NaOH, 75% stop solution (78.4% isopropanol, 19.6% n-heptane, 2% deionized water)] followed by addition of 600 μL of n-heptane. The mixture was vortexed and the triglycerides formed were extracted into the organic heptane phase. 250 μL of the heptane phase was added into 4 mL scintillation cocktail (66.72% toluene, 33.3% TritonX-100, 0.5% PPO, 0.02% POPOP) and counted on a liquid scintillation counter for 1 min. Data was collected and plotted as a function of concentration in nM versus percentage inhibition of hDGAT1 by the compounds of present invention.
Take `CC(C)(Cc1ncc(-c2ccc(NC(=O)c3ccc(-c4ccccc4)cc3)cc2)o1)C(=O)O` [Example 128, 3-(5-(4-Biphenyl-4-ylcarboxamidophenyl)oxazol-2-yl)-2,2-dimethylpropanoic acid]: the “Percentage inhibition of hDGAT1” value is reported as “+ (20-50% Inhibition)”.
On to `O=C(O)CCCc1nnc(-c2ccc(NC(=O)c3ccc(-c4ccccc4)cc3)cc2)s1` [Example 290, 4-(5-(4-([1,1′-Biphenyl]-4-ylcarboxamido)phenyl)-1,3,4-thiadiazol-2-yl)butanoic acid], for which the “Percentage inhibition of hDGAT1” value is listed as “+ (20-50% Inhibition)”.
On the same count and under the same terms, in the case of `O=C(Nc1ccc(-c2cnc(CNS(=O)(=O)C(F)(F)F)s2)cc1)Nc1ccccc1Cl` [Example 543, N-((5-(4-(3-(2-Chlorophenyl)ureido)phenyl)thiazol-2-yl)methyl)-1,1,1-trifluoro methanesulfonamide] it was “++ (>50 % Inhibition)”.

The same assay, now with this note: read-out: Percentage inhibition of hDGAT1.
As usually defined, the inhibition is the drop in the measured response relative to a control, in per cent. Regarding `CC(C)(CCc1ncc(-c2ccc(NC(=O)Nc3cc(F)cc(F)c3)cc2)s1)C(=O)NS(=O)(=O)C(F)(F)F` [Example 581, 4-(5-(4-(3-(3,5-Difluorophenyl)ureido)phenyl)thiazol-2-yl)-2,2-dimethyl-N-((trifluoromethyl)sulfonyl)butanamide], the inhibition at 1 µM is greater than 50%.
Same read-out and setting: the result for `Cc1ccc(NC(=O)Nc2ccc(-c3nnc(CCCC(=O)O)s3)cc2)cc1` [Example 282, 4-(5-(4-(3-(p-Tolyl)ureido)phenyl)-1,3,4-thiadiazol-2-yl)butanoic acid] reads greater than 50%; that for `O=C(Nc1ccc(-c2cnc(CNS(=O)(=O)C(F)(F)F)s2)cc1)Nc1cc(F)cc(F)c1` [Example 545, N-((5-(4-(3-(3,5-Difluorophenyl)ureido)phenyl)thiazol-2-yl)methyl)-1,1,1-trifluoromethanesulfonamide], greater than 50%; that for `CC(C)(C)OC(=O)N1CCC(c2ncc(-c3ccc(NC(=O)Nc4ccccc4F)cc3)s2)CC1` [Example 475, t-Butyl 4-(5-(4-(3-(2-fluorophenyl)ureido)phenyl)thiazol-2-yl)piperidine-1-carboxylate], 20 to 50%.
Still for that read-out and setting: in the case of `Cc1ccc(NC(=O)Nc2ccc(-c3cnc(CCCC(=O)O)s3)cc2)cc1C` [Example 53, 4-(5-(4-(3-(3,4-Dimethylphenyl)ureido)phenyl)thiazol-2-yl)butanoic acid] it was greater than 50%.
Same read-out and setting: in the case of `CC(C)(N)C1CCC(c2ncc(-c3ccc(NC(=O)Nc4ccc(F)cc4F)cc3)s2)CC1` (centres unmarked) [Example 589, 1-(4-(2-(4-(2-Aminopropan-2-yl)cyclohexyl)thiazol-5-yl)phenyl)-3-(2,4-difluorophenyl)urea] it was greater than 50%; in that of `CC(C(=O)O)N1CCC(c2ncc(-c3ccc(NC(=O)Nc4c(F)cc(F)cc4F)cc3)s2)CC1` (centres unmarked) [Example 459, 2-(4-(5-(4-(3-(2,4,6-Trifluorophenyl)ureido)phenyl)thiazol-2-yl)piperidin-1-yl)propanoic acid], greater than 50%.
Take `Cc1cccc(Cl)c1NC(=O)Nc1ccc(-c2cnc(C3CCC(C(=O)O)CC3)s2)cc1` (centres unmarked) [Example 162, 4-(5-(4-(3-(2-Chloro-6-methylphenyl)ureido)phenyl)thiazol-2-yl)cyclohexane carboxylic acid]: the inhibition at 1 µM is greater than 50%.
Same read-out and setting: the result for `O=C(Nc1ccc(-c2cnc(CNS(=O)(=O)C(F)(F)F)s2)cc1)Nc1ccccc1F` [Example 544, 1,1,1-Trifluoro-N-((5-(4-(3-(2-fluorophenyl)ureido)phenyl)thiazol-2-yl)methyl)methanesulfonamide] reads greater than 50%.
Same read-out and setting: in the case of `O=C(Nc1ccc(-c2cnc(C3CCC(C(=O)O)CC3)s2)cc1)Nc1cccc(C(F)(F)F)c1` (centres unmarked) [Example 134, 4-(5-(4-(3-(3-(Trifluoromethyl)phenyl)ureido)phenyl)thiazol-2-yl)cyclohexane carboxylic acid] it was greater than 50%; in that of `O=C(Nc1ccc(-c2cnc(C3CCC(C(=O)O)CC3)s2)cc1)Nc1cc(F)cc(F)c1` (centres unmarked) [Example 182, 4-(5-(4-(3-(3,5-Difluorophenyl)ureido)phenyl)thiazol-2-yl)cyclohexane carboxylic acid], greater than 50%.
Consider `Cc1noc(CC2CCC(c3ncc(-c4ccc(NC(=O)Nc5cc(F)cc(F)c5)cc4)s3)CC2)n1` (centres unmarked) [Example 392, 1-(3,5-Difluorophenyl)-3-(4-(2-(4-((3-methyl-1,2,4-oxadiazol-5-yl)methyl)cyclohexyl)thiazol-5-yl)phenyl)urea], for which the inhibition at 1 µM was greater than 50%.
Take `CN1CCN(C(=O)Nc2ccc(-c3cnc(CCC(C)(C)C(=O)O)s3)cc2)CC1` [Example 243, 2,2-Dimethyl-4-(5-(4-(4-methylpiperazine-1-carboxamido)phenyl)thiazol-2-yl)butanoic acid hydrochloride]: the inhibition at 1 µM was 20 to 50%.
`O=C(Nc1ccc(Oc2ccccc2)cc1)Nc1ccc(-c2cnc(C3CCC(C(=O)O)CC3)s2)cc1` (centres unmarked) [Example 170, 4-(5-(4-(3-(4-Phenoxyphenyl)ureido)phenyl)thiazol-2-yl)cyclohexane carboxylic acid]: the inhibition at 1 µM is greater than 50%.
For the compound `CC(C)(O)CC1CCC(c2ncc(-c3ccc(NC(=O)Nc4cc(F)cc(F)c4)cc3)s2)CC1` (centres unmarked) [Example 408, 1-(3,5-Difluorophenyl)-3-(4-(2-(4-(2-hydroxy-2-methylpropyl)cyclohexyl)thiazol-5-yl)phenyl)urea], the inhibition at 1 µM is greater than 50%.
The same measure, in the same setting: the result for `CC(C)(NS(=O)(=O)C(F)(F)F)c1ncc(-c2ccc(NC(=O)Nc3ccccc3Cl)cc2)s1` [Example 562, N-(2-(5-(4-(3-(2-Chlorophenyl)ureido)phenyl)thiazol-2-yl)propan-2-yl)-1,1,1-trifluoromethanesulfonamide] reads greater than 50%; that for `O=C(Nc1ccc(-c2cnc(C3CCC(C(=O)O)CC3)s2)cc1)Nc1c(F)cccc1C(F)(F)F` (centres unmarked) [Example 176, 4-(5-(4-(3-(2-Fluoro-6-(trifluoromethyl)phenyl)ureido)phenyl)thiazol-2-yl)cyclohexanecarboxylic acid], 20 to 50%.
Still for that read-out and setting: in the case of `O=C(Nc1ccc(-c2cnc(C34CC5CC(CC(C(=O)O)(C5)C3)C4)s2)cc1)Nc1ccc(F)c(F)c1F` [Example 510, 3-(5-(4-(3-(2,3,4-Trifluorophenyl)ureido)phenyl)thiazol-2-yl)adamantane-1-carboxylic acid] it was greater than 50%; in that of `O=C(Nc1ccc(-c2cnc(C3CCC(C(=O)O)CC3)s2)cc1)Nc1cccc(Cl)c1F` (centres unmarked) [Example 152, 4-(5-(4-(3-(3-Chloro-2-fluorophenyl)ureido)phenyl)thiazol-2-yl)cyclohexane carboxylic acid], greater than 50%.
Regarding `CC(C)(Cc1ncc(-c2ccc(NC(=O)Nc3ccc(Cl)cc3Oc3ccccc3)cc2)o1)C(=O)O` [Example 124, 3-(5-(4-(3-(4-Chloro-2-phenoxyphenyl)ureido)phenyl)oxazol-2-yl)-2,2-dimethyl propanoic acid], the inhibition at 1 µM was greater than 50%.
